Measured values as given in US20140296343A1, “NON-PEPTIDE BDNF NEUROTROPHIN MIMETICS” (PharmatrophiX, Inc., priority 2010, published 2014).

B1: BDNF: Brain Derived Neurotrophic Factor, a neurotrophin; native ligand of TrkB (protein, UniProt P23560 19-247, looked up)
Neurotrophic factor BDNF …: APMKEANIRGQGGLAYPGVRTHGTLESVNGPKAGSRGLTSLADTFEHVIEELLDEDQKVRPNEENNKDADLYTSRVMLSSQVPLEPPLLFLLEEYKNYLDAANMSMRVRRHSDPARRGELSVCDSISEWVTAADKKTAVDMSGGTVTVLEKVPVSKGQLKQYFYETKCNPMGYTKEGCRGIDKRHWNSQCRTTQSYVRALTMDSKKRIGWRFIRIDTSCVCTLTIKRGR

Assays:
[1] = test system: E16-17 hippocampal neurons; experiment: Aβ-induced neuronal degeneration (Alzheimer's disease model); type: cell-based; details: for prevention of Aβ-induced degeneration: Aβ1-42 oligomer 10 μM
Experimental: The ability of the BDNF mimetics to prevent Aβ-induced neuronal degeneration can be tested as a model of the compounds' ability to treat Alzheimer's disease. E16-17 hippocampal neurons are matured for 6 days and then incubated for 3 days with the indicated combinations of Aβ oligomer preparations (Dahigren, K. N., et al. (2002) J Biol Chem 277, 32046-32053), neurotrophins and neurotrophin mimetics. Following the three day incubation, neuronal survival is assessed using standard morphological criteria (Massa, S. M., et al. (2006) J Neurosci 26, 5288-5300).
Addition of Aβ1-42 oligomer (10 μM) but not control AβScrambled oligomer (10 μM) results in an approximate 40% reduction in neuronal survival. […] The effectiveness of BDNF mimetics of the present invention can be compared to BDNF in blocking Aβ-induced degeneration.

[2] = biological target: T1, TrkB (Homo sapiens, UniProt Q16620); experiment: Trk activation by Western blot of phospho-Trk in NIH3T3 cells expressing TrkB; type: cell-based
T1 construct: expressed in transfected cells; host or cells: NIH3T3 (mouse fibroblasts, no native Trk receptors)
Description: (§1) To assess the interactions of the BDNF loop 2 mimetic compounds with TrkB receptors, the ability of the compounds of the invention to activate TrkA, TrkB, and TrkC is compared in a series of Western blotting experiments. […] Western blots were used to detect phospho-Trk which is a standard method for detecting Trk activation.

[3] = biological target: T2, TrkC (Homo sapiens, UniProt Q16288); experiment: Trk activation by Western blot of phospho-Trk in NIH3T3 cells expressing TrkC; type: cell-based
T2 construct: expressed in transfected cells; host or cells: NIH3T3 (mouse fibroblasts, no native Trk receptors)
Experimental: as §1
A measurement of NIH3T3 cells expressing TrkC can also be used to evaluate the compounds of the invention. Total amount of TrkC present is determined by probing with anti-TrkC antibodies.

[4] = test system: mouse E16 striatal neurons; details: cited from earlier work
[5] = biological target: T3, TrkA (Homo sapiens, UniProt P04629); experiment: Trk activation by Western blot of phospho-Trk in NIH3T3 cells expressing TrkA; type: cell-based
T3 construct: expressed in transfected cells; host or cells: NIH3T3 (mouse fibroblasts, no native Trk receptors)
Description: as §1

T1 sequence (Q16620 32-822): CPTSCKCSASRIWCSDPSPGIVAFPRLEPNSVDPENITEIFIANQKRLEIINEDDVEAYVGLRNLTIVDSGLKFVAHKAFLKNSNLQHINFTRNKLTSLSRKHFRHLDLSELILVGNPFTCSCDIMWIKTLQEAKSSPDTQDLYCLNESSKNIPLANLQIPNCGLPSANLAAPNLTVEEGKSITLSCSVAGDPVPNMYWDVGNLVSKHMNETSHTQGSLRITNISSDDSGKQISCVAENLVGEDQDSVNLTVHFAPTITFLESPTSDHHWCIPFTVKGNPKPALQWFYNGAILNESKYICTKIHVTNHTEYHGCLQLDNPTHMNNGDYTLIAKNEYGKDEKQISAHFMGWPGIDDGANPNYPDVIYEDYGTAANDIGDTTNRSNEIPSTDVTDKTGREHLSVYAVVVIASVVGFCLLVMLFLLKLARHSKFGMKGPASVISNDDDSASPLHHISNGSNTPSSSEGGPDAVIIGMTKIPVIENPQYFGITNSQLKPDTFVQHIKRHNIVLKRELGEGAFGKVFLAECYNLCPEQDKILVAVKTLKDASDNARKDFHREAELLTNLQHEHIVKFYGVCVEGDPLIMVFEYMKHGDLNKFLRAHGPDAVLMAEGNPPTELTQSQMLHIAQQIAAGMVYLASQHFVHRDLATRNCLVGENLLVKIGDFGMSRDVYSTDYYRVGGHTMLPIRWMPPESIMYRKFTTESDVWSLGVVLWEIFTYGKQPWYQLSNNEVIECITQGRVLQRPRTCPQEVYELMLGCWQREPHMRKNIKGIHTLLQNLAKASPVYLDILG
T2 sequence (Q16288 32-839): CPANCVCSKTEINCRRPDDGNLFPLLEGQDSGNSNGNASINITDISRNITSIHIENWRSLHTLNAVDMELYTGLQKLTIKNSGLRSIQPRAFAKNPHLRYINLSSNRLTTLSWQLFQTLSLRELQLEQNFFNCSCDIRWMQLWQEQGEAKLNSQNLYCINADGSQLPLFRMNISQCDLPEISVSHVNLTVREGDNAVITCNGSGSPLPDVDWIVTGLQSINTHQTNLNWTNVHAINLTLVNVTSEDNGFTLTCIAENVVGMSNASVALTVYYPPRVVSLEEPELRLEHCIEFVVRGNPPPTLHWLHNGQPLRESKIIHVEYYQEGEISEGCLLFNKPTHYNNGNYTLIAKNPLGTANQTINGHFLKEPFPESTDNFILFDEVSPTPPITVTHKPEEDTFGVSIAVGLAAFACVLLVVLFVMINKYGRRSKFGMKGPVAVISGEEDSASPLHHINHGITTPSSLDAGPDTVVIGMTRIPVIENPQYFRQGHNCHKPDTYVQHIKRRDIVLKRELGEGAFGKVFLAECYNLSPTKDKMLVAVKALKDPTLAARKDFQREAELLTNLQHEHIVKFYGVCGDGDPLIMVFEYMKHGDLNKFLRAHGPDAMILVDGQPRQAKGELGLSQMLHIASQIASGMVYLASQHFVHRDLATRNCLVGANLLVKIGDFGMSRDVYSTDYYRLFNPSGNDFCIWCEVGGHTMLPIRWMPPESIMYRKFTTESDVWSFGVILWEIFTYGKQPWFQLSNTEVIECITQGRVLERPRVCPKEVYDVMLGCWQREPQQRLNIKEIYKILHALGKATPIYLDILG
T3 sequence (P04629 33-796): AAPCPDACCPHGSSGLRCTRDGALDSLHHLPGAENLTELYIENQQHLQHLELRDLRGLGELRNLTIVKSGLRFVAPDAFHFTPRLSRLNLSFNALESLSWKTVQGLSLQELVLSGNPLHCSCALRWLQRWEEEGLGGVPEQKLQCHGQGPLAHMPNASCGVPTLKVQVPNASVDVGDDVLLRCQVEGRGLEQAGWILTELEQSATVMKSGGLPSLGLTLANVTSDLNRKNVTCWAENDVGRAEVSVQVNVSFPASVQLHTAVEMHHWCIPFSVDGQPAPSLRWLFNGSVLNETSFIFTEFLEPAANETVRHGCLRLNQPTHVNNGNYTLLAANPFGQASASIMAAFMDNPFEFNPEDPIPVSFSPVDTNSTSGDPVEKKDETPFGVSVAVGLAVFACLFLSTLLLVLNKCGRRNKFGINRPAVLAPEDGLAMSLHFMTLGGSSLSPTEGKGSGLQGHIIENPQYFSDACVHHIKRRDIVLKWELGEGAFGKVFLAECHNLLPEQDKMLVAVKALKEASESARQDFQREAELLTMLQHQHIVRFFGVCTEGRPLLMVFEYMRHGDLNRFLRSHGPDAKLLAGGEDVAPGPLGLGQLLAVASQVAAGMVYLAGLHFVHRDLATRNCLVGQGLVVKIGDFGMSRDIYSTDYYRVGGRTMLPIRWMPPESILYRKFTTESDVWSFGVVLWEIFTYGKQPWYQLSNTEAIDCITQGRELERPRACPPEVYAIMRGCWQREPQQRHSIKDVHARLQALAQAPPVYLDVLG

| Molecule | prevention of Aβ-induced degeneration ([1]; 3 day incubation) | activation of TrkB (Trk phosphorylation, anti-TrkY490) [2] | phosphorylation of Trk in TrkC-expressing cells [3] | also measured |
| --- | --- | --- | --- | --- |
| CC[C@H](C)[C@H](N)C(=O)NCCN1CCOCC1 [LM11A-31, reference compound] | blocks Aβ-induced degeneration |  |  |  |
| NGF: Nerve Growth Factor, a neurotrophin; native ligand of TrkA | fails to prevent Aβ-induced degeneration | do not activate TrkB |  | effect on LM11A-31 blocking of Aβ-induced degeneration ([1]; NGF together with LM11A-31): blocked |
| Aβ1-42 oligomer: amyloid-β 1-42 oligomer preparation used to induce neuronal degeneration [reference compound] |  |  |  | reduction in neuronal survival ([1]; 10 μM, 3 day incubation): ~40% |
| NT-3: Neurotrophin-3; native ligand of TrkC |  |  | promotes the phosphorylation of Trk |  |
| COC(=O)[C@@]1(O)C[C@H]2O[C@]1(C)n1c3ccccc3c3c4c(c5c6ccccc6n2c5c31)C(=O)NC4 [Compound K252a] |  |  |  | effect on quinolinic acid-induced death ([4]; K252a alone): no effect; effect on the ability of BDNF to prevent quinolinic acid-induced death ([4]; K252a with BDNF): blocks the ability of BDNF to prevent death |
| B1 |  | activate TrkB | do not | prevention of quinolinic acid-induced death ([4]; previous work): can prevent quinolinic acid-induced death; activation of TrkA (Trk phosphorylation) [5]: does not |
